≈ marks a conversion by molar mass, not a printed value. Entries after “also recorded” stand apart in the source; their conditions may differ. Where two headings read alike, the source gives them in different places.

The subject of one series is PHA activated T-cells. Briefly: T-cell proliferation inhibition assay (PBMC, tritiated thymidine). Format: cell-based, human. The conditions noted are these: for IC50: T-cell; for Inhibition of T-cell proliferation (in words): PHA activated T-cells. The protocol: The T-Cell proliferation inhibitory activity of compounds was evaluated by following the reported method of Nielsen et al. (1998) with slight modifications. Peripheral blood mononuclear cells (PBMC) were isolated from healthy human donors with their consent by Ficoll-Hypaque density gradient centrifugation. The study was carried out after approval from independent ethics committee, ICCBS-UoK, No: ICCBS/IEC-008-BC-2015/Protocol/1.0.
The cells were adjusted to a final concentration of 2 × 10^6 cells/mL in 5% FBS (fetal bovine serum) containing RPMI 1640 media and added with 5 μg/mL phytohemagglutinin (PHA) in 96-well round bottom plates. Each compound was added in triplicate using four concentrations (0.2, 1, 5, and 25 μg/mL). Positive control wells contained cells and PHA, whereas cells alone served as a negative control. The plate was incubated in 5% CO2 at 37°C for 72 h, and cells were pulsed with 25 μL of tritiated thymidine (0.5 μci/well). The incubation was continued for further 18 h. The cells were finally harvested on a glass fiber filter, and the plate was read as count per minute (CPM) using β-scintillation counter.

For series [1], the system named is TNF-α produced by LPS activated THP-1 cells. Kind of series: Cytokine inhibition assay (TNF-α ELISA). The series is classed as cell-based, human. The conditions noted are these: for inhibition at 25 µg/mL: Homo sapiens, read-out: TNF-α % inhibition. From the text:
THP-1 (Human monocytic leukemia cells) was purchased from ECACC (85011428, European Collection of Cell Cultures, UK). The cells were maintained in endotoxin free RPMI-1640 containing 5.5 mmol/L glucose (BioM Laboratories, Chemical Division, Malaysia), 50 μmol/L mercaptoethanol Merck (Damstadt, Germany), 10% FBS (fetal bovine serum), 2 mmol/L L-glutamine (PAA Laboratories, GmbH, Pasching, Austria), 1 mmol/L sodium pyruvate (GIBCO, Grand Island, N.Y., U.S.A.), and 10 mmol/L HEPES (MP Biomedicals, lllkirch, France). Upon reaching 70% confluency, 2.5×10^5 cells/mL cells were plated in 24 well tissue culture plates. The cells were differentiated using 20 ng/mL phorbol myristate acetate (PMA) (SERVA, Heidelberg, Germany) for 24 hours. The cells were stimulated by adding 50 ng/mL of Escherichia coli lipopolysaccharide B (DIFCO Laboratories, U.S.A.) and treated with compound (25 μg/mL). The incubation was continued for 4 hours at 37°C in 5% CO2. The supernatants collected were analyzed for the level of pro-inflammatory cytokine TNF-α, and quantification was performed by human TNF-α kit (R&D Systems, Minneapolis, U.S.A.), according to manufacturer’s instructions.

Series [2] deals with zymosan activated PMNs (human whole blood cells). Kind of series: Oxidative burst inhibition assay (luminol-enhanced chemiluminescence, zymosan-activated). Format: cell-based. The settings on record: for IC50: Whole blood cell, zymosan activated PMNs / human whole blood, tested at 1, 10, 100 μg/mL, mean ± SD of triplicates. The method, then:
Oxidative burst assay was carried out by chemiluminescence technique using luminol as a probe to determine the effect of test compounds on the production of reactive oxygen species (ROS) from phagocytes, employing […] et al. method with slight modifications. […] Louis, MO, USA) and 25 μL ([…]) of luminol (Sigma Chemical Co., St. Louis, MO, USA). HBSS^++ alone was run as a negative control. The level of ROS was measured as RLU (relative light units) with a luminometer (Labsystem Luminoskan RS, Finland). The luminometer was used in repeated scan mode with 50 seconds interval, and one second point measuring time.

The mark [3] stands for this setting: Homo sapiens, read-out: IC50, PHA activated T-cells proliferation, human PBMC, 5 μg/mL PHA, tested at 0.2, 1, 5, 25 μg/mL, mean ± SD of triplicates.
Where [4] appears, read: human PBMC, 5 μg/mL PHA, tested at 0.2, 1, 5, 25 μg/mL, mean ± SD of triplicates, read-out: IC50, PHA activated T-cells proliferation.

The molecule `CC(=O)[C@@]1(O)CC[C@H]2[C@@H]3C[C@@](C)(O)C4=CC(=O)CC[C@]4(C)[C@H]3C(=O)C[C@@]21C` [Compound 5, 6β,17α-Dihydroxy-6α-methylpregn-4-ene-3,11,20-trione] yielded a melting point of 289 to 291 °C. Moreover, in the series on PHA activated T-cells (setting [3]), the IC50 came out at 1.2 ± 0.02 µg/mL (≈ 3.2 µM). Further, in the series with PHA activated T-cells, the “Inhibition of T-cell proliferation (in words)” value is “strongly inhibited; also recorded: strong inhibitory activity”. For the same molecule, the inhibition at 25 µg/mL in series [1] (THP-1, 4 h) was determined as 6.44 ± 0.21%. In series [2], the IC50 was > 100 µg/mL.

Take `CC(=O)[C@H]1C[C@@H](O)[C@H]2[C@@H]3C[C@H](C)C4=CC(=O)CC[C@]4(C)[C@H]3C(=O)C[C@@]21C` [Compound 4, 15β-Hydroxy-6α-methylpregn-4-ene-3,11,20-trione]: the melting point was 185 to 186 °C. Moreover, the IC50 in the series on PHA activated T-cells (setting [3]) is 9.2 ± 0.7 µg/mL (≈ 25.7 µM). For the same molecule, the “Inhibition of T-cell proliferation (in words)” value in the series with PHA activated T-cells was “strongly inhibited; also recorded: strong inhibitory activity”. Also, the inhibition at 25 µg/mL in series [1] (THP-1, 4 h) is -7.49 ± 1.27%. The IC50 in series [2] was > 100 µg/mL.

`CC(O)C1CCC2C3CC(C)(O)C4=CC(=O)CCC4(C)C3C(=O)CC12C` (stereo not drawn) [Compound 6, 6β,20S-Dihydroxy-6α-methylpregn-4-ene-3,11-dione]: the melting point is 229 to 230 °C. Moreover, the IC50 in the series with PHA activated T-cells (setting [3]) came out at 15.2 ± 2.4 µg/mL (≈ 42.2 µM). For the same molecule, the “Inhibition of T-cell proliferation (in words)” value with PHA activated T-cells was “moderate inhibitors”. Also, the inhibition at 25 µg/mL in series [1] (THP-1, 4 h) was 4.4 ± 9.6%. Moreover, the IC50 in series [2] came out at 30.3 ± 8.8 µg/mL. Also, the “Inhibition of oxidative burst / ROS (in words)” value in series [2] (zymosan-induced, human whole blood cells / PMNs) was “moderate inhibitory activity”.

For the molecule `CC(=O)[C@H]1CC[C@H]2[C@@H]3C[C@@](C)(O)C4=CC(=O)CC[C@]4(C)[C@H]3C(=O)C[C@]12C` [Compound 3, 6β-Hydroxy-6α-methylpregn-4-ene-3,11,20-trione], the IC50 with PHA activated T-cells (setting [3]) was 14.6 ± 2.1 µg/mL (≈ 40.7 µM); in series [2], > 100 µg/mL. In addition, the “Inhibition of T-cell proliferation (in words)” value in the series on PHA activated T-cells is listed as “moderate inhibitors”. Besides, in series [1] (THP-1, 4 h), the inhibition at 25 µg/mL was -2.69 ± 5.08%.

Regarding `CC(=O)[C@H]1CC[C@@]2(O)[C@@H]3C[C@H](C)C4=CC(=O)CC[C@]4(C)[C@H]3C(=O)C[C@]12C` [Compound 2, 14α-Hydroxy-6α-methylpregn-4-ene-3,11,20-trione], the melting point is 209 to 210 °C. In addition, in the series with PHA activated T-cells (setting [3]), the IC50 was found to be 20 ± 0.9 µg/mL (≈ 55.8 µM). In addition, the “Inhibition of T-cell proliferation (in words)” value in the series with PHA activated T-cells is recorded as “moderate inhibitors”. In addition, the inhibition at 25 µg/mL in series [1] (THP-1, 4 h) is -4.04 ± 0.2%. The IC50 in series [2] is > 100 µg/mL.

In turn, `C[C@H]1C[C@H]2[C@@H]3[C@H](O)C[C@H]([C@@H](C)O)[C@@]3(C)CC(=O)[C@@H]2[C@@]2(C)CCC(=O)C=C12` [Compound 8, 15β,20R-Dihydroxy-6α-methylpregn-4-ene-3,11-dione] yielded a melting point of 274 to 275 °C. For the same molecule, in the series on PHA activated T-cells (setting [3]), the IC50 worked out at 10.4 ± 0.42 µg/mL (≈ 28.8 µM). Further, the “Inhibition of T-cell proliferation (in words)” value in the series with PHA activated T-cells is recorded as “strongly inhibited; also recorded: strong inhibitory activity”. Further, in series [1] (THP-1, 4 h), the inhibition at 25 µg/mL is -8.23 ± 2.75%. In addition, in series [2], the IC50 was > 100 µg/mL.

Take `CC(=O)[C@H]1CC[C@H]2[C@@H]3C[C@H](C)C4=CC(=O)CC[C@]4(C)[C@H]3[C@@H](O)C[C@]12C` [Compound 1, 11β-hydroxy-6α-methylpregn-4-ene-3,20-dione, reference compound]: the “Inhibition of T-cell proliferation (in words)” value in the series on PHA activated T-cells is “strongly inhibited; also recorded: strong inhibitory activity”. For the same molecule, the IC50 with PHA activated T-cells (setting [4]) was 2.9 ± 0.04 µg/mL (≈ 8.42 µM); in series [2], > 100 µg/mL. In addition, in series [1] (compound 25 μg/mL, LPS activated THP-1 cells, 4 h, mean ± SD of triplicates, -ve sign = increase in cytokine level), the inhibition at 25 µg/mL stood at 30.5 ± 1.69%. In series [1] (LPS activated THP-1 cells), the “Inhibition of TNF-α production (in words)” value is “inhibit; also recorded: moderate levels of inhibition”.

Take `CC(=O)[C@H]1[C@@H](O)C[C@H]2[C@@H]3C[C@H](C)C4=CC(=O)CC[C@]4(C)[C@H]3[C@@H](O)C[C@@]21C` [Compound 7]: the IC50 with PHA activated T-cells (setting [3]) was 0.2 to 10.4 µg/mL (≈ 0.555 to 28.8 µM); in series [2], > 100 µg/mL. For the same molecule, the “Inhibition of T-cell proliferation (in words)” value in the series on PHA activated T-cells is recorded as “strongly inhibited; also recorded: strong inhibitory activity”. In the series on PHA activated T-cells (human PBMC, 5 μg/mL PHA, tested at 0.2, 1, 5, 25 μg/mL, mean ± SD of triplicates), the “IC50, PHA activated T-cells proliferation” value is <0.2 µg/mL. The inhibition at 25 µg/mL in series [1] (THP-1, 4 h) came out at 28.6 ± 11.5%. Besides, the “Inhibition of TNF-α production (in words)” value in series [1] (LPS activated THP-1 cells) is reported as “inhibit; also recorded: moderate levels of inhibition”.

Take `CC(C)Cc1ccc(C(C)C(=O)O)cc1` (stereo not shown) [Ibuprofen, reference compound]: the IC50 in series [2] was 2.5 ± 0.6 µg/mL.

With `C[C@]12C=CC(=O)C=C1CC[C@@H]1[C@@H]2[C@@H](O)C[C@@]2(C)[C@H]1CC[C@]2(O)C(=O)CO` [Prednisolone, reference compound], in the series with PHA activated T-cells (setting [4]), the IC50 is < 3.1 µg/mL.

The values above are taken from publication PMC4841542, “New Anti-Inflammatory Metabolites by Microbial Transformation of Medrysone” (PLoS ONE, 2016).
